# Laboratory results published in US7700613B2, “Use of 7-t-butoxyiminomethylcamptothecin for the preparation of a medicament for the treatment of uterine neoplasms” (Sigma-Tau Farmaceutiche Riunite, S.p.A., priority 2004, dated 2010).
# Columns and labels:
# [1] = preclinical trials in vivo
# Description: Gimatecan is a new anticancer compound that has shown a high therapeutic index in preclinical trials in vivo. Moreover, gimatecan is characterised by an anticancer activity that is maintained with different administration regimens, both intermittent and prolonged.
# [2] = system: uterine cancers, both of the cervix and the endometrium; assay: European phase I trial of gimatecan as single therapeutic agent in patients with advanced cancers; type: in vivo
# Method: In the light of this preclinical evidence, a European phase I trial was conducted in which gimatecan was administered as a single therapeutic agent with different administration regimens. The patients studied were affected by advanced cancers for which curative or standard therapy was no longer indicated. Although the aim of the study was to assess the tolerability of the treatment with gimatecan, in the course of this clinical trial gimatecan produced a number of lasting objective clinical responses. Particularly worthy of mention are the responses of a number of patients with uterine cancers, both of the cervix and the endometrium, including forms which had received substantial previous treatments and presented metastatic disease.
# These responses were subjected to two independent assessments by experts not taking part in the clinical trial, who confirmed the observations.
structure (smiles),measurement,setting,value
"CC[C@@]1(O)C(=O)OCc2c1cc1n(c2=O)Cc2c-1nc1ccccc1c2/C=N/OC(C)(C)C [gimatecan, 7-terbutoxyiminomethylcamptothecin]",therapeutic index,[1],high
same,objective clinical response,"[2]; patients with uterine cancers (cervix and endometrium), incl. substantially pretreated and metastatic disease, assessed by computed tomography, confirmed by two independent assessments",partial responses
same,reduction of the tumour lesion or lesions,"[2]; responding patients with uterine cancers, diagnostic imaging such as computed tomography, definition of partial response",more than 30%
